Data as given in article PMC9631117, “Epitope length variants balance protective immune responses and viral escape in HIV-1 infection” (Cell Reports, 2022).
Entries after “also recorded” stand apart in the source; their conditions may differ.

What was measured:
KIR3DL1*001 = KIR3DL1*001 binding assay (dextramer staining of KIR3DL1*001-transfected BA/F3 cells); settings: peptide complexed with HLA-B*27:05 dextramer; Figure 7A; result in words
Description: Each line was stained with LIVE/DEAD Fixable Violet (Thermo Fisher Scientific). […] The parental line was used as a control for each condition. Samples were tested in duplicate.

[1] = system: KK10-specific CTL clone G12C; experiment: Competition IFN-γ ELISpot with KK10-specific CTL clone G12C and T2-HLA-B*27:05 cells; assay type: cell-based, human; settings: result in words; for Inhibition of the G12C response to KK10 at the amounts produced by proteasomal digestion: comparison of competition ELISpot with the processing data; for Effect on IFN-γ release by G12C in response to KK10 at the EC50 concentration: peptide pre-incubated 30 min at 37°C with T2-HLA-B*27:05 cells at molar ratios 1-800 relative to KK10
Description: G12C cells were expanded as described previously([Iversen et al., 2006]) and rested for 2 days in fresh medium supplemented with IL-2 (20 IU/mL) and IL-15 (25 ng/mL) before testing in IFN-γ ELISpot assays (Merck Millipore) ([Tenzer et al., 2009], [2014]). TAP-deficient T2 cells were transfected with HLA-B^∗27:05 to generate T2-HLA-B^∗27:05 cells ([Kuipers et al., 1996]). These cells were used in competition assays to minimize the potentially confounding effects of internally loaded peptides and other HLA class I and class II molecules. […] The EC50 concentration was determined in preliminary ELISpot assays as the concentration required to elicit half-maximal IFN-γ production ([Tenzer et al., 2009], [2014]). Samples were tested in triplicate or quadruplicate. G12C responses were expressed as spot-forming units per 10^6 cells. Standard ex vivo IFN-γ ELISpot assays were performed as described previously ([Tenzer et al., 2009], [2014]).

TAP = experiment: TAP-peptide competitive binding assay; settings: result in words; for Normalized TAP affinity relative to KK10: competitive binding, Figure 1E
[2] = system: PBMCs isolated from HLA-B*27:05+ patients with chronic HIV-1 infection; experiment: Ex vivo IFN-γ ELISpot; assay type: cell-based, human; settings: PBMCs of ten HLA-B*27:05+ patients, result in words
HLA-B*27:05 = HLA-B*27:05 (Homo sapiens, UniProt P01889, D138H/D201E/E176V/E204Q/G107R/H137Y/K202T/N104T/N87E/Q56L/Q94K/R106L/R155S/R180L/S101D/S121N/S48T/Y140D/Y33H/Y91C); experiment: Refolding of epitope-form peptides with HLA-B*27:05 heavy chain and β2m (heterotrimer formation); assay type: binding; settings: rapid dilution refold, size exclusion, mass spectrometry, result in words
Description: HLA-B^∗27:05 heavy chain and β2M proteins were expressed and purified as described previously ([Burgess, 2009]; [Tenzer et al., 2009]) and refolded with peptide using a rapid dilution method ([Tsumoto et al., 2003]). Heterotrimeric complexes were purified via size exclusion using a HiLoad 26/600 Superdex 75 pg column fitted to an AKTA Purifier FPLC System (GE Healthcare). Eluent fractions corresponding to absorbance peaks were examined via SDS-PAGE. Heterotrimeric complexes were then purified again via size exclusion using a Superdex 75 10/300 GL column fitted to an AKTA Purifier FPLC System (GE Healthcare). Correctly refolded heterotrimers were concentrated to > 10 mg/mL for crystallization trials using Amicon Ultra-0.5 Centrifugal Filter Units with Ultracel-10 Membranes (Merck Millipore). Optimal protein concentrations were determined for each complex using a PCT Pre-Crystallization Test (Hampton Research). […] Crystallization was carried out using the sitting-drop vapor-diffusion method. Briefly, crystallization screen reagents (Hampton Research) were dispensed into a CrystalQuick 96 Well Sitting Drop Plate (Greiner) using a Hydra eDrop II (Thermo Fisher Scientific), and 10 nL of protein was dispensed as a sitting drop in each well after mixing with 10 nL of the corresponding well buffer using a Microsys Liquid Handler (Cartesian Technologies). Crystal screens were stored at 4°C using a Protein Crystallization Imager (Formulatrix). Crystals obtained from the screens were immersed in reservoir buffer containing 20% glycerol as a cryoprotectant and vitrified at 100 K in liquid nitrogen. X-ray diffraction was carried out on beamlines at the European Synchrotron Radiation Facility, Grenoble, France (www.esrf.eu) or at the Diamond Light Source, Didcot, UK (www.diamond.ac.uk).

ERAP1/2 = settings: incubation with ERAP1/2 for 140 min, Figure 1G, result in words

Substance: KRWIILGL [KL8]
- KIR3DL1 binding relative to KK10 (KIR3DL1*001): Further reductions
- Inhibition of the G12C response to KK10 at the amounts produced by proteasomal digestion [1]: more than halve the G12C response to KK10
- Normalized TAP affinity relative to KK10 (TAP): exceeded that of the immunodominant HLA-B^∗57:01/B^∗5703-restricted HIV-1 epitope TW10
- TAP-adjusted production of KK10 epitope forms (predicted relative abundance in the ER) (TAP; proteasomal production adjusted for TAP interactions, Figure 1F): dominant minitope
- Peptide-specific IFN-γ release (immunogenicity) [2]: Specific IFN-γ release was identified

Substance: KRWIILG [KG7]
- Normalized TAP affinity relative to KK10 (TAP): exceeded that of the immunodominant HLA-B^∗57:01/B^∗5703-restricted HIV-1 epitope TW10
- Peptide-specific IFN-γ release (immunogenicity) [2]: poor immunogenicity

Substance: KRWII [KI5]
- Formation of heterotrimeric complexes with HLA-B*27:05 heavy chain and β2m in refolds (HLA-B*27:05): refolded inefficiently
- Formation of heterotrimeric complexes with HLA-B*27:05 heavy chain and β2m in refolds (HLA-B*27:05; listed as KL5): formation of heterotrimeric complexes
- Effect on IFN-γ release by G12C in response to KK10 at the EC50 concentration [1]: less striking than those of the longer minitopes
- Normalized TAP affinity relative to KK10 (TAP): lowest affinities
- Peptide-specific IFN-γ release (immunogenicity) [2]: poor immunogenicity

Substance: GEIYKRWIILGLNKI [GI15]
- ERAP1/2 trimming (reduction in abundance) (ERAP1/2): trimmed significantly more than other epitope forms

Substance: KRWI [KI4]
- Formation of heterotrimeric complexes with HLA-B*27:05 heavy chain and β2m in refolds (HLA-B*27:05): formation of heterotrimeric complexes; also recorded: refolded inefficiently
- Effect on IFN-γ release by G12C in response to KK10 at the EC50 concentration [1]: less striking than those of the longer minitopes
- Normalized TAP affinity relative to KK10 (TAP): lowest affinities
- Peptide-specific IFN-γ release (immunogenicity) [2]: poor immunogenicity

Substance: KRWIIMGL [KL8-M]
- KIR3DL1 binding relative to KK10 (KIR3DL1*001): marginally increased binding to KIR3DL1

Substance: KRWIIL [KL6]
- Inhibition of the G12C response to KK10 at the amounts produced by proteasomal digestion [1]: more than halve the G12C response to KK10
- Normalized TAP affinity relative to KK10 (TAP): exceeded that of the immunodominant HLA-B^∗57:01/B^∗5703-restricted HIV-1 epitope TW10
- Peptide-specific IFN-γ release (immunogenicity) [2]: poor immunogenicity
